From US4304781A, “Treatment of ulcers and hypertension” (John Wyeth & Brother Limited, priority 1978, dated 1981)

How the values were obtained:
Format in all cases: in vivo
stress-induced erosion = test: Stress-induced erosion test (Senay & Levine), anti-ulcer activity
Description: (§1) Anti-ulcer activity was determined by the stress-induced erosion test of Senay & Levine, Proc. Soc. Exp. Biol. Med., 124, 1221-1223 (1967) and anti-secretory activity by the test of H. Shay, D. Sun and H. Greenstin, Gastroenterology, 1954, 26, 903-913 as exemplified by Beattie et al J. Med. Chem., 20, 714 (1977). […] However, some compounds show activity in tests for anti-hypertensive activity.

hypersecretion = test: Anti-secretory activity test (Shay et al); parameters: key to Anti-secretory, % change in Vol.: NS: Not Significant; settings: for Anti-secretory, % change in Vol. / change in vivo at 30 mg/kg: 30 mg/kg; for change in vivo at 30 mg/kg / change in vivo at 10 mg/kg: read-out: Anti-secretory, % change in Vol.
Description: as §1

[1] = tested on: male spontaneously hypertensive rats; test: Antihypertensive activity, Procedure A: systolic pressure of spontaneously hypertensive rats
Description: Systolic pressure of male spontaneously hypertensive rats is measured by an indirect technique using the Decker Caudal Plethysmograph or other appropriate sensor. Groups usually consist of 4 rats. Drugs are usually administered orally. Pressures are usually read prior to drug administration and at 1.5, 4 and 24 hours thereafter. This schedule may be altered depending upon the behaviour of the drug.

SMILES	inhibition in vivo at 100 mg/kg (stress-induced erosion) [%]	Anti-secretory, % change in Vol. (hypersecretion)	change in vivo at 30 mg/kg (hypersecretion) [%]	further results
COc1cccc(CSc2cccc[n+]2C)c1 [Example 36, 2-((3-Methoxybenzyl)thio)-1-methylpryridinum chloride]	69	NS		
c1ccc(CSc2ccccn2)cc1 [Example 38, 2-((Benzyl)thio)pyridine]			-32	
C[n+]1ccc(SCc2ccccc2)cc1 [Example 23, 4-Benzylthio-1-methylpyridinium bromide]	80	NS		inhibition in vivo at 30 mg/kg (stress-induced erosion): 70%
C[n+]1ccccc1SCc1ccc([N+](=O)[O-])cc1 [Example 6, 1-Methyl-2-(4-nitrobenzylthio)pyridinium bromide]	84	NS		
C[n+]1ccccc1SCCCc1ccccc1 [Example 7, 1-Methyl-2-(3-phenylpropylthio)pyridinium bromide]	77	NS		
C[n+]1ccccc1SCc1cc(Cl)cc(Cl)c1 [Example 28, 2-(3,5-Dichlorobenzyl)thio)-1-methylpyridinium chloride]			-55	
C[n+]1ccccc1SCc1cccc(Br)c1 [Example 17, 2-(3-Bromobenzylthio)-1-methylpyridinium bromide]	64		-52	Antihypertensive activity (Procedure A) ([1]; 50 mg/kg orally): inactive
C[n+]1ccccc1SCc1cccc(F)c1 [Example 22, 2-((-3-Fluorobenzyl)thio)-1-methylpyridinium chloride]	72		-69	inhibition in vivo at 30 mg/kg (stress-induced erosion): 64%
C[n+]1ccc(SCc2cccc(Cl)c2)cc1 [Example 24, 4-((3-Chlorobenzyl)thio)-1-methylpyridinium chloride]	23		-40	inhibition in vivo at 30 mg/kg (stress-induced erosion): 60%
C[n+]1ccccc1SCc1c(Cl)cccc1Cl [Example 5, 2-(2,6-Dichlorobenzylthio)-1-methylpyridinium chloride]	70		-65	change in vivo at 10 mg/kg (hypersecretion): -35%; Antihypertensive activity (Procedure A) ([1]; 75 mg/kg orally): showed activity
C[n+]1ccccc1SCC=Cc1ccccc1 [Example 16, 2-Cinnamylthio-1-methylpyridinium bromide]			-55	
CCOC(OCC)c1ccc[n+](-c2ccccc2)c1SCc1ccccc1 [Example 19, 2-Benzylthio-3-(diethoxy)methyl-1-phenylpyridinium chloride]			-88	
COc1ccc(CSc2cccc[n+]2C)cc1 [Example 26, 2-((4-Methoxybenzyl)thio)-1-methylpyridinium chloride]			-46	
C[n+]1ccccc1SCc1ccc(Br)cc1 [Example 13, 2-(4-Bromobenzylthio)-1-methylpyridinium bromide]	70	NS		inhibition in vivo at 30 mg/kg (stress-induced erosion): 73%
C[n+]1ccccc1SCc1ccc(F)cc1 [Example 21, 2((4-Fluorobenzyl)thio)-1-methylpyridinium chloride]	82		-67	inhibition in vivo at 30 mg/kg (stress-induced erosion): 71%
C[n+]1ccccc1SCC(=O)c1ccccc1 [Example 15, 1-Methyl-2-phenacylthiopyridinium bromide]	100	NS		Antihypertensive activity (Procedure A) ([1]; 75 mg/kg orally): showed activity
C[n+]1ccccc1SCc1ccc(Cl)c(Cl)c1 [Example 4, 2-(3,4-Dichlorobenzylthio)-1-methylpyridinium chloride]	67		-45	Antihypertensive activity (Procedure A) ([1]; 75 mg/kg orally): showed activity
C[n+]1cccc(C=O)c1SCc1ccccc1 [Example 29, 2-Benzylthio-3-formyl-1-methylpyridinium bromide]	71		-48	
Cc1ccc(CSc2cccc[n+]2C)cc1 [Example 10, 1-Methyl-2(4-methylbenzylthio)pyridinium bromide]			-43	
O=[N+]([O-])c1ccc(C[n+]2ccccc2SCc2ccccc2)cc1 [Example 41, 1-(4-Nitrobenzyl)-2-(benzylthio)-pyridinium bromide]	69	NS		
c1ccc(CSC2=NCCCC2)cc1 [Example 43, 2-Benzylthio-3,4,5,6-tetrahydropyridine]			-48	

SMILES	inhibition in vivo at 100 mg/kg (stress-induced erosion) [%]	Anti-secretory, % change in Vol. (hypersecretion)	change in vivo at 30 mg/kg (hypersecretion) [%]	further results
CC(C)c1ccc(CSc2cccc[n+]2C)cc1 [Example 18, 2-((-4-Isopropylbenzyl)thio)-1-methylpyridinium chloride]	71		-39	inhibition in vivo at 30 mg/kg (stress-induced erosion): 60%; Antihypertensive activity (Procedure A) ([1]; 50 mg/kg orally): inactive
C[n+]1ccccc1SCCc1ccccc1 [Example 2, 1-Methyl-2-(2-phenylethylthio) pyridinium bromide]	67		-56	inhibition in vivo at 30 mg/kg (stress-induced erosion): 83%; change in vivo at 10 mg/kg (hypersecretion): -20%; Antihypertensive activity (Procedure A) ([1]; 75 mg/kg orally): showed activity
C[n+]1ccccc1SCc1ccc(OCc2ccccc2)cc1 [Example 14, 2-(((4-Benzyloxy)benzyl)thio)-1-methylpyridinium chloride]	90		-49	inhibition in vivo at 10 mg/kg (stress-induced erosion; 10 mg/kg): 60%; inhibition in vivo at 30 mg/kg (stress-induced erosion): 73%; change in vivo at 10 mg/kg (hypersecretion): -19%
CC(CSc1cccc[n+]1C)c1ccccc1 (centres unmarked) [Example 9, 1-Methyl-2-(2-phenylpropylthio)pyridinium bromide]			-32	
c1ccc(CSc2cccc[n+]2Cc2ccccc2)cc1 [Example 45, 1-Benzyl-2-(benzylthio)pyridinium bromide]			-75	
Cc1ccc(CSc2cccc[n+]2C)cc1C [Example 8, 1-Methyl-2-(3,4-dimethylbenzylthio)pyridinium chloride]	62	NS		inhibition in vivo at 30 mg/kg (stress-induced erosion): 70%
C[n+]1ccccc1SCc1ccccc1Cl [Example 27, 2-((2-Chlorobenzyl)thio)-1-methylpyridinium chloride]			-66	change in vivo at 10 mg/kg (hypersecretion): -39%
C[n+]1ccccc1SCc1cccc(C(F)(F)F)c1 [Example 37, 1-Methyl-2-((3-trifluoromethylbenzyl)thio)pyridinium chloride]		NS		Antihypertensive activity (Procedure A) ([1]; 50 mg/kg orally): showed activity
C[n+]1ccccc1SCc1cccc(I)c1 [Example 35, 2-((3-Iodobenzyl)thio)-1-methylpyridinium chloride]	67		-41	
C[n+]1ccccc1SC(c1ccccc1)c1ccccc1 [Example 39, 2-((Diphenylmethyl)thio)-1-methyloyridinium bromide]		NS		Antihypertensive activity (Procedure A) ([1]; 50 mg/kg orally): showed activity
C[N+]1=C(SCc2ccccc2)CCCC1 [Example 44, 2-Benzylthio-3,4,5,6-tetrahydro-1-methylpyridinium bromide]			-52	
Clc1cccc(CSc2ccncc2)c1 [Example 31, 4((3-Chloro)benzylthio)pyridine]	62		-34	
Cc1ccccc1CSc1cccc[n+]1C [Example 33, 1-Methyl-2-((2-methyl)benzylthio)pyridinium bromide]	73	NS		
C[n+]1ccccc1SCc1ccccc1 [Example 1, 2-Benzylthio-1-methylpyridinium bromide]	75		-71	inhibition in vivo at 30 mg/kg (stress-induced erosion): 92%
C[n+]1ccccc1SCCCCc1ccccc1 [Example 40, 1-Methyl-2-((4-phenylbutyl)thio)pyridinium bromide]	67		-36	
C[n+]1ccccc1SCc1cccc([N+](=O)[O-])c1 [Example 32, 1-Methyl-2-((3-nitro)benzylthio)pyridinium chloride]	73	NS		
OCc1ccc[n+](-c2ccccc2)c1SCc1ccccc1 [Example 30, 2-Benzylthio-3-hydroxymethyl-1-phenylpyridinium bromide]	71		-42	
c1ccc(CSc2ccncc2)cc1 [Example 34, 4-Benzylmercaptopyridine]	64	NS		
C[n+]1ccccc1SCc1ccccc1F [Example 20, 2-((2-Fluorobenzyl)thio)-1-methyloyridinium chloride]	70		-90	inhibition in vivo at 30 mg/kg (stress-induced erosion): 76%; change in vivo at 10 mg/kg (hypersecretion): -54%
Cc1cccc(CSc2cccc[n+]2C)c1 [Example 25, 1-Methyl-2-((3-methylbenzyl)thio)pyridinium chloride]	80		-69	inhibition in vivo at 30 mg/kg (stress-induced erosion): 75%
C[n+]1ccccc1SCc1ccc(Cl)cc1 [Example 3, 2-(4-Chlorobenzylthio)-1-methylpyridinium chloride]	83		-77	Antihypertensive activity (Procedure A) ([1]; 75 mg/kg orally): inactive
